No end group written: not given here.
How the values were obtained:
[1] = target: T1, CA125 protein (Homo sapiens, UniProt Q8WXI7); assay: ELISA assay of binding and specificity to CA125 protein; details: HRP-conjugated M13 antibody, TMB, FIG. 1
T1 construct: purchased R&D Systems Inc, MN, USA
T1 sequence (Q8WXI7 12660-12923 limits assumed): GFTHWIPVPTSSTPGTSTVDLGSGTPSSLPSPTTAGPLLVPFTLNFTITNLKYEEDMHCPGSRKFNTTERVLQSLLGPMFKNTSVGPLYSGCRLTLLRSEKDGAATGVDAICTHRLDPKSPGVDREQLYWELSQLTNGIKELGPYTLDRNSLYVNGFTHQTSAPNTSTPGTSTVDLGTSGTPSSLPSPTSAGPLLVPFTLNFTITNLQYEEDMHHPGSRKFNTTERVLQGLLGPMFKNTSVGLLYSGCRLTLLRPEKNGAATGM
Protocol: (§1) In order to evaluate the binding affinity and specificity of the discovered SEQ ID NO: 1 peptide to the CA125 protein, and the binding affinity and specificity of the SEQ ID NO: 2 peptide to HE4, ELISA assay was performed according to the manufacturer's instructions using CA125 protein (R&D Systems Inc, MN, USA), HE4 protein (Sinobiological, PA, USA), HRP-conjugated M13 antibody (Sinobiological, PA, USA), and TMB solution (Thermo Scientific, MA, USA). In addition, to measure the binding affinity Kd (dissociation constant), the discovered peptides of SEQ ID NO: 1 and SEQ ID NO: 2 were synthesized (Biostem, Suwon, Korea), CA125 protein and HE4 protein were each fluorescently labeled using Protein Labeling kit RED-NHS 2nd Generation (NanoTemper Technologies, Munich, Germany). Afterwards, the binding affinity between peptide and protein was measured using Monolith NT.115 (NanoTemper Technologies, Munich, Germany) according to the manufacturer's instructions.

[2] = target: T1, CA125 protein; assay: Binding affinity Kd, synthesized peptide vs fluorescently labeled protein, Monolith NT.115; details: CA125 protein labeled RED-NHS, read-out: binding affinity Kd (dissociation constant)
Protocol: as §1

[3] = target: T2, HE4 protein (Homo sapiens, UniProt Q14508); assay: ELISA assay of binding and specificity to HE4 protein; details: HRP-conjugated M13 antibody, TMB, FIG. 1
T2 construct: purchased Sinobiological, PA, USA
T2 sequence (Q14508 31-124): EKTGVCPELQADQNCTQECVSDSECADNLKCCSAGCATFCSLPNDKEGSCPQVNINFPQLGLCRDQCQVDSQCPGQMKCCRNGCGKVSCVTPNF
Protocol: as §1

[4] = target: T2, HE4 protein; assay: Binding affinity Kd, synthesized peptide vs fluorescently labeled protein, Monolith NT.115; details: HE4 protein labeled RED-NHS, read-out: binding affinity Kd (dissociation constant)
Protocol: as §1

Row | specific binding to the CA125 protein [1] | Kd [2] [µM] | specific binding to the HE4 protein [3] | Kd [4] [µM] | Substance
1 | specifically bound | 0.0114 ± 0.00423 | – | – | HTHGAARVPDHR [SEQ ID NO: 1, HTHGAARVPDHR]
2 | – | – | specifically bound | 15.3 ± 12 | LGSKPIN [SEQ ID NO: 2, LGSKPIN]
